According to a melting point compilation (Tetko et al.; mined from patent text by program, amines drawn as free bases though some values may be those of a salt):

| melting point | Structure (SMILES) |
| --- | --- |
| 155 °C | O=C(O)c1ccc2cnc3ccccc3c2c1 |
| 266 to 271 °C | O=C1NC(=O)[C@@]2(C[C@@H](C(=O)NCCO[N+](=O)[O-])Oc3ccc(F)cc32)N1 |
| 75 to 77 °C | Cc1ccc(CNc2nc(Nc3cccc(N)c3)nc(OCC(F)(F)F)n2)o1 |
| 236 to 239 °C | C=CCc1c(O)ccc2c1CCC(=O)N2 |
| 83 °C | CCN(CC)CC(C)N1c2ccccc2Sc2ccc(C#N)cc21 (stereo not given) |
| 74 to 77 °C | Cc1ccc(S(=O)(=O)OCC2Cc3cc(Cl)cc(C(C)(C)C)c3O2)cc1 (stereo not given) |
| 292 °C | CCn1cc(C(=O)O)c(=O)c2cc3c(nc21)CCO3 |
| 166 °C | CC(C)(C)OC(=O)CN(C(=O)CN1C(=O)c2ccccc2C1=O)c1ccc2c(c1)OCO2 |
| 254 to 256 °C | Nc1nc2ccccc2c2c1nc(N)n2Cc1ccccc1 |
| 112 to 119 °C | Fc1cc(F)c(-c2c(Cl)nc(Cl)n2-c2ccc(Cl)cc2)c(F)c1 |
| 142 to 143 °C | CS(=O)(=O)c1ccc(C2=C(c3ccccc3)C(=O)OC23CCCC3)cc1 |
| 218 to 220 °C | CC1Cc2c(n(-c3ccc(Cl)c(Cl)c3)c3ncccc3c2=O)O1 (stereo not given) |
| 218 to 220 °C | CC1(C)Oc2ccc(C#N)cc2[C@@H](NC2=C(CO)C(=O)CC2)[C@@H]1O (relative stereo) |
| 202 to 205 °C | COc1ccc(O)c(C(=O)c2oc3ccc(Cl)cc3c2N)c1 |
| 225 to 230 °C | CC1c2ccccc2-c2ccccc2N1S(=O)(=O)c1ccc(O)c(C(=O)O)c1 (stereo not given) |
| 126 to 127 °C | CC(=O)O[C@@H]1[C@H](OC(C)=O)[C@@H](C)O[C@H]1n1c(Cl)nc2c(Cl)c(Cl)c(Cl)cc21 |
| 171 to 174 °C | O=C(O)Cc1ccc(OCc2ccccc2C(=O)O)cc1 |
| 180 to 182 °C | O=C(O)CCC(=NOCc1ccc(OCc2cn3ccccc3n2)cc1)c1ccccc1 |
| 100 to 101 °C | C[C@@H](n1ncn(-c2ccc(F)cc2)c1=O)[C@@]1(c2ccc(F)cc2F)CO1 |
| 81 to 83 °C | CC(=O)C(C(=O)N(CCN(C)C)c1ccccc1)=C(N)c1ccccc1 |
| 170 to 171 °C | NCC1Cc2cc(F)cc(-c3ccncc3)c2O1 (stereo not given) |
| 125 °C | CC(C)(C(N)=O)c1ccc(Cl)cc1 |
| 181 °C | CCC(=O)NN=C(C)c1cnccn1 |
| 80 to 81 °C | OC1CCc2c1cccc2-n1cccc1 (stereo not given) |

| melting point | Structure (SMILES) |
| --- | --- |
| > 300 °C | COc1ccc(-n2cnc3c(O)nc4ccccc4c32)cc1 |
| 114 °C | CCOC(=O)c1c(-c2ccccc2)nc2c(C(F)(F)F)cccc2c1O |
| 299 to 300 °C | Cc1nnc(-c2ccccn2)[nH]c1=O |
| 70 to 71 °C | Cc1ccccc1C(=O)Nc1cccc(C(C)C)c1 |
| 104 to 106 °C | O=C(NC(CO)CO)OCc1ccccc1 |
| 163 °C | CC(=O)Oc1cccc(C(=Cc2ccccc2)c2cccc(OC(C)=O)c2OC(C)=O)c1OC(C)=O |
| 214 to 217 °C | COC(=O)C(NS(=O)(=O)Cc1c(Cl)c(C)cc2nc(OC)c(OC)nc12)c1ccccc1 (stereo not given) |
| 135 to 137 °C | CCc1c(C)nc2n(c1=O)C(C)CCC2=NNc1ccccc1 (stereo not given) |
| 98 to 100 °C | CCOC(=O)COc1cc(F)c(C)cc1C(=S)NCc1ccc(Br)cc1F |
| 183 to 185 °C | O=C(O)c1ccccc1C(=O)NCCc1cccnc1 |
| 50 °C | Cc1cc(-n2cncn2)c2cccc(OCc3c(Cl)ccc(S(=O)(=O)N4CCC[C@H]4C(=O)NCC4CCN(CC(=O)OC(C)(C)C)CC4)c3Cl)c2n1 |
| 79 to 80 °C | CCCCn1cnc2c1c(=O)n(CCCCC(C)=O)c(=O)n2C |
| > 255 °C | COc1cc(NS(C)(=O)=O)ccc1C1=NC2=CCC(=O)NC2=N1 |
| 142 °C | CCCCCCCCCCCCCCCCCCS(=O)(=O)Nc1ccc(O)cc1 |
| 221 to 222 °C | Cc1ccc(-c2ccc(-c3ccc(C)cc3)n2-c2ccc(O)cc2)cc1 |
| 242 to 245 °C | Cc1c(C)c2ccc(OCCCN3CCC(NC(=O)c4ccc(N)cc4)CC3)cc2oc1=O |
| 306 °C | Cc1nc2c(O[C@@H]3c4ccccc4C[C@H]3O)cc(C(=O)O)cc2n1C (relative stereo) |
| 72.7 °C | O=S(=O)(OCC(F)(F)F)c1ccc2ccccc2c1 |
| 233 to 234 °C | COc1ccc(-c2cnc3c(n2)c(C#N)cn3S(=O)(=O)c2ccc(C)cc2)cc1OC |
| 222 to 224 °C | CCCc1c(O)ccc2c(=O)cc(C(=O)OC)oc12 |
| 210 °C | O=C(OC(Cc1c[nH]cn1)C(=O)O)C(Cc1ccccc1)Cc1ccccc1 (stereo not given) |
| 150 to 151 °C | CCOC(=O)C1=C(C)NC(=S)N(C(=O)OC)C1c1cccc([N+](=O)[O-])c1 (stereo not given) |
| 104 °C | COc1ccc(/C=C/C(=O)/C=C/C(=O)O)cc1 |
| 63 to 64 °C | COc1ccc(OCCCCCCO)cc1 |

| melting point | Structure (SMILES) |
| --- | --- |
| 219 to 220 °C | COC(=O)c1ccc(-c2nc(O)c(C)s2)cc1 |
| 200 to 202 °C | COC(=O)c1ccc2oc3c(c(=O)c2c1)CCC3=Cc1cccc(C)n1 |
| 195 to 197 °C | COC(=O)N(C)CCc1ccc2[nH]cc(S(=O)(=O)c3ccccc3)c2c1 |
| 88.5 °C | CC(CCCC(C)C1CCC2C3CC=C4C(C)(C)C(O)CCC4(C)C3CCC12C)CO[Si](C)(C)C(C)(C)C (stereo not given) |
| 150 to 152 °C | CNC(=O)N1N=C(c2ccc(NC(C)=O)cc2)c2cc3c(cc2CC1C)OCO3 (stereo not given) |
| 150 °C | COc1ccc2nc(C)c(CCCl)c(=O)n2c1 |
| 73 to 74 °C | Cc1c(OCC(F)(F)F)ccnc1CS(=O)c1nc2cc(N3CCN(C)CC3)c(F)cc2[nH]1 (stereo not given) |
| 205 to 206 °C | Cn1cc(-c2ccc(Cl)cc2Cl)c(=O)cc1C(F)(F)F |
| 149 to 150 °C | COC(=S)NC(=O)c1ccccc1-c1ccc(C)cc1 |
| 59 to 60 °C | CCCCCCCCCCCCCC=C(C(=O)O)c1ccc2c(c1)C(C)(C)CCC2(C)C |
| > 250 °C | COC(=O)c1cc2c(cc1C#Cc1ccccc1)NC(=O)CC(c1cccc(C#N)c1)=N2 |
| 233 to 235 °C | O=C1NC(=O)c2c1c(-c1cccc(Cl)c1Cl)cc1[nH]c3ccc(O)cc3c21 |
| 198 to 200 °C | Cc1cc2c(cc1C)C1(O)C(=O)c3ccccc3C1(O)O2 (stereo not given) |
| 161 to 162 °C | CC(=O)OC1(C)C=CC2=NC(c3cc(C)c(O)c(C)c3)=CC2=C1 (stereo not given) |
| 75 to 80 °C | Cc1ccc(-c2ccc(O)cc2)c(-c2ccc(OCCN3CCOCC3)cc2)n1 |
| 266 to 267 °C | COc1c(-c2cc3c(s2)CCCC3=O)ccc2c(=O)c(C(=O)O)cn(C3CC3)c12 |
| 141 to 142 °C | COc1cccc(C(=O)NN2C(c3ccccc3)=NOC2(C)C)c1C |
| 175 to 177 °C | CCCOc1cc(NC(=O)C[C@H]2O[C@H](c3cccc(OC)c3OC)c3cc(Cl)ccc3N(CC(C)(C)CO)C2=O)cc2cc(C(=O)O)oc12 |
| 222 °C | CC(=O)N[C@@H]1CCN(S(=O)(=O)c2ccc(Cl)c(CBr)c2Cl)C1 |
| 72 to 73 °C | O=[N+]([O-])c1cc(CO)ccc1Oc1ccc(OCc2ccccc2)cc1 |
| 238 °C | CCCCc1nc(=O)n2nc(-c3ccc(F)cc3)cc2[nH]1 |
| 170 to 190 °C | COCCNCc1ccc(-c2cc3ncnc(Nc4ccc5[nH]ccc5c4)c3s2)cc1 |
| 157 to 160 °C | O=C(NCC1CCCCC1)c1c(Cl)ccc2nc(N3CCC[C@@H]3C(=O)O)ccc12 |
| 170 °C | O=C(Cc1ccc(Cl)cc1)Nc1cccc2nc(N[C@@H]3CCc4ccccc43)ccc12 |

| melting point | Structure (SMILES) |
| --- | --- |
| 188 to 189 °C | COc1ccc(S(=O)(=O)Nc2cccnc2Nc2ccc(OC(=O)C(C)(C)C)cc2)cc1 |
| 153 to 154 °C | Cc1nnc(-c2ccc3ncn(-c4cccc(OC(F)(F)F)c4)c3c2)o1 |
| 134 to 135 °C | N#Cc1ccccc1N1CCC2(CC1)OCCO2 |
| 163 to 165 °C | O=C1C=CC(=O)N1c1ccc([N+](=O)[O-])cc1 |
| 154 to 158 °C | C=CCNc1ccc(N(CC(O)CO)CC(O)CO)cc1[N+](=O)[O-] (stereo not given) |
| 102 °C | CCCCc1c(C(=O)c2ccc(OC)cc2)n(C)c2ccc([N+](=O)[O-])cc12 |
| > 320 °C | CC1CCN(CCC(=O)Nc2ccc3c(=O)c4ccc(NC(=O)CCN5CCC(C)CC5)cc4[nH]c3c2)CC1 |
| 184 to 185 °C | COCCOCCOCCOCC(N)C(=O)O (stereo not given) |
| 165 to 166 °C | C=CCC1(CC=C)c2cccc(OC)c2C(=O)c2cccc(Cl)c21 |
| 149 to 150 °C | CCN(CC)CCNC(=O)c1cc(Cl)c(N)cc1OCC(C)O (stereo not given) |
| 208 to 210 °C | CCCc1nn(C)c2c(-c3ccc(S(C)(=O)=O)cc3)nc(-c3ccc(F)cc3)nc12 |
| 107 to 108 °C | CCCC(N)CCCCCCC(=O)O (stereo not given) |
| 193 to 195 °C | CC(C)c1cc(C(C)C)c(CC(=O)NS(=O)(=O)Oc2c(C(C)C)cc(CNC(=O)CN)cc2C(C)C)c(C(C)C)c1 |
| 290 °C | CCOC(=O)c1cn(C)c2cnc3cc(F)c(N4CCNC(c5ccc(C)c(C)c5)C4)cc3c2c1=O (stereo not given) |
| 81 to 82 °C | CC(=O)NCC1CC1c1cccc2nnsc12 (stereo not given) |
| 180 to 188 °C | O=C(C=P(c1ccccc1)(c1ccccc1)c1ccccc1)N1CCCCC1 |
| 125 to 127 °C | CCOC(=O)CCCNC1=NS(=O)(=O)c2ccccc21 |
| 83.5 to 84.5 °C | CCCc1c(OCCCOc2cccc3c2CCCC3)ccc2c1OC(CCC(=O)O)(CCC(=O)OCC)CC2=O (stereo not given) |
| 50 to 56 °C | COc1ccc(NS(=O)(=O)c2ccc(N3CCC(=O)CC3)cc2)cc1OC |
| 223 to 225 °C | CCCCOc1ccc(NS(=O)(=O)c2ccc(N3CCNC3=O)cc2)cc1 |
| 167 to 168 °C | COC(=O)c1c(C(=O)OC)c2sc3ccccc3n2c1-c1ccc(OC)cc1 |
| 123 to 124 °C | CCN(c1ccncc1)c1ccccc1C(=O)N1CCCCC1 |
| 170 to 172 °C | CCCc1c(COCCOc2ccc(-c3nnn[nH]3)cc2)ccc(C(C)=O)c1O |

| Structure (SMILES) | melting point |
| --- | --- |
| O=c1[nH]c(N[N+](=O)[O-])ncc1Cc1cccnc1 | 214 to 216 °C |
| Fc1ccc(CBr)c(I)c1 | 71 to 73 °C |
| CNC1(c2ccccc2)CCC(=O)CC1 | 32 to 38 °C |
| C#CCP(=O)(O)CCCN | 172 to 173 °C |
| CCOC(=O)[C@H]1CCCN2CCc3c([nH]c4ccc(Cl)cc34)[C@@H]12 (racemic) | 88 to 90 °C |
